Source: US5281608A, “Substituted tetrahydropyrido[3',4':4,5]-pyrrolo[3,2-c]quinolines” (American Home Products Corporation, priority 1992, dated 1994)
Converted amounts (≈) assume the structure as drawn.

Tests used:
[1] = tested on: rat limb bones (IL-1 induced bone resorption); assay: Bone resorption assay (45Ca release from rat limb bones), IL-1 induced; assay type: cell-based, rat (Sprague-Dawley CD); conditions: 48 h; for IC50: Rattus norvegicus, read-out: Inhibition of Bone Resorption, IL-1 Induced (IC50)
Description: (§1) The ability of the compounds of the invention to modify the process of bone resorption is evaluated in the bone resorption assay measuring ^45 Ca release from rat limb bones.
(§2) Limb bone preparation. Timed pregnant Sprague-Dawley CD® rats (Charles River) are administered 100 μCi ^45 CaCl2 (NEN calcium -45 NEZ-013) in 100 μl of 0.9% saline, subcutaneously, on day 18 of gestation. The rats are sacrificed the following day by CO2 asphyxiation. The fetuses are removed and the right forelimbs excised and placed in a Petri dish containing ice cold explant medium consisting of modified BGJb -Fitton Jackson media (custom formulation, Gibco No. 78-0088) adjusted to pH 7.3 to which 10 mM TES is added. The modified BGJb media is obtained without salts, glucose or bicarbonate and is supplemented before use with 0.1 mM MgCl2, 1.25 mM CaCl2, 5.3 mM KCl, 0.7 mM MgSO4, 130 mM NaCl, 1.0 mM NaH2 PO4, 1 g/L glucose, 50 mg/L Na acetate and 100 U/ml penicillin G. The medium is sterilized by passage through a 0.2 μ M filter (Nalge). Under a dissecting microscope, the bones are gently cleaned of adherent tissue and the cartilaginous ends removed. Incubation and drug treatment. The midshafts are placed, individually, on 3×3 mm squares of filter paper (Gelman GN-6 metricel filters; […] pore size) which rest on stainless steel screens in wells of 24-well culture plates containing 0.5 mL of preincubation medium. The preincubation medium is brought to 37° C. prior to transfer of bones. The preincubation medium consists of the modified BGJb medium (with salts and glucose as above), pH 7.3, containing 29 mM NaHCO3. After incubation for 18-24 hours at 37° C. in 5% CO2, the bones are transferred on their screen/filter paper supports to new plates containing, in a total volume of 0.5 mL/well at 37° C., the test compound diluted in preincubation medium supplemented with 15% heat inactivated horse serum (Gibco No. 230-6050), pH 7.3, with a bone resorption stimulating agent (e.g. parathyroid hormone [PTH] or interleukin-1 [IL-1]). For compounds that require nonaqueous solvents, dilutions are made from the appropriate stock solution with medium. In these instances, basal and bone resorption stimulated controls exposed to an equivalent concentration of the vehicle are included. An additional group of bones that have been subjected to boiling for 1 hour (kill control) are used to establish background, non cell mediated, exchange of ^45 Ca. The right ulna and radius from each fetus are used. Both bones are subjected to the same treatment and each treatment group consists of bones from 4 or more fetuses. Treatments are randomly assigned using a preclinical statistics program (PS-ALLOC). After a 48 hour incubation at 37° C. in 5% CO2, the bones are removed from the medium and extracted in 0.5 mL of 0.1N HCl for 1 or more days. Duplicate 150 μL aliquots of the incubation medium and the bone extract are analyzed for ^45 Ca radioactivity in 5 mL of liquid scintillation cocktail.
(§3) The percentage of bone ^45 Ca released into the medium is determined as follows: [formula] Results are normally expressed as the ratio of the percent ^45 Ca release of the experimental group versus the appropriate vehicle control, or as an IC50 value.

[2] = tested on: rabbit articular chondrocytes (IL-1-induced neutral protease release); assay: Inhibition of IL-1-induced release of neutral protease from rabbit articular chondrocytes; assay type: cell-based, rabbit (Male New Zealand White); conditions: Oryctolagus cuniculus, Chondrocyte, human IL-1 stimulated, 24 h
Description: The ability of the compounds of the invention to inhibit interleukin 1 is measured by the ability of the test compounds to inhibit the IL-1-induced release of neutral protease from rabbit articular chondrocytes.
Male New Zealand White rabbits are anesthetized with 50 mg/kg of ketamine (i.m.) and killed by an intracardiac injection of 3 mls. of Nembutal. The knee joints of both legs are resected and the articular surfaces are exposed. Cartilage slices are obtained using a scalpel and are placed in a tissue culture dish (100 mm diameter) containing 10 mls of Hank's balanced salt solution (HBSS). The chondrocytes within the cartilage slices are then liberated by a series of enzyme digestions. The slices are incubated for 10 minutes at 37° C. in 0.05% hyaluronidase (Sigma H-3884), rinsed with HBSS and incubated with 0.2% trypsin (Sigma T-2395) for 10 minutes at 37° C. The slices are rinsed again and incubated for 10 minutes at 37° C. with 1.2% collagenase (Sigma C-5138). The slices are then rinsed again with HBSS and resuspended in 10 ml of Ham's F-12 medium containing 10% fetal bovine calf serum (FCS) and 0.2 % collagenase and incubated overnight at 37° C. in a 5% CO2 incubator. The next day, the medium containing the digested cartilage fragments and liberated chondrocytes is transferred to a 15 ml centrifuge tube and the cells are collected by centrifugation and washed twice and resuspended in Ham's F-12 medium. The cells are then plated into 24-well tissue culture plates (2×10^5 cells/well) and incubated at 37° C. until confluent (usually 4-6 days).
The confluent chondrocytes are rinsed twice with serum-free Ham's F-12 medium and 1 ml is added to each well. Fifty μl of purified human IL 1 (100 Units/ml; Genzyme Corporation, Boston, Mass.) is then added to stimulate these cells to secrete neutral protease. To measure drug effects, the cells are treated with test compound 10 minutes prior to addition of IL-1. The standard screening dose is 10 μM. Twenty-four hours after IL-1 stimulation, supernatant fluids are collected and assayed for neutral protease activity.
The neutral protease activity of chondrocyte supernatant fluids is determined by their ability to degrade an insoluble protease substrate, azocoll (Sigma). Supernatants are treated for 10 minutes at room temperature with 350 μM p-aminophenylmurcuric acetate to activate the latent enzyme. Three hundred μl of supernatant is then mixed with 500μl of a 20 mg/ml suspension of azocoll and incubated at 37° C. for 18-24 hours with gentle rocking. The mixtures are centrifuged and the amount of substrate hydrolyzed is determined by measuring the absorbance of the supernatant at 520 nm.
Drug effects are calculated as the % change in enzyme activity (absorbance)by supernatants from drug-treated chondrocytes relative to enzyme activity of supernatants from vehicle-treated chondrocytes as follows: [formula]

[3] = tested on: rat limb bones (PTH-induced bone resorption); assay: Bone resorption assay (45Ca release from rat limb bones), PTH-induced; assay type: cell-based, rat (Sprague-Dawley CD); conditions: 48 h; for IC50: Rattus norvegicus, read-out: Inhibition of Bone Resorption, PTH-Induced (IC50)
Description: as §1, §2, §3

Compound: CS(=O)(=O)c1ccc(N2CCc3[nH]c4c(cnc5cc(Cl)ccc54)c3C2)cc1 [Example 1, 3-Chloro-8,9,10,11-tetrahydro-8-[4-(methylsulfonyl)phenyl]-7H-pyrido[3',4':4,5]pyrrolo[3,2-c]quinoline]
- Inhibition of Bone Resorption, IL-1 Induced (activity in words) [1]: Active
- IC50 [1]: 6.84 µg/mL (≈ 16.6 µM)
- inhibition at 10 µM [2]: 40%
- Inhibition of Bone Resorption, PTH-Induced (activity in words) [3]: Active
- IC50 [3]: 0.633 µg/mL (≈ 1.54 µM)

Compound: CCOC(=O)c1ccc(N2CCc3[nH]c4c(cnc5cc(Cl)ccc54)c3C2)cc1 [Example 2, 4-(3-Chloro-8,9,10,11-tetrahydro-7H-pyrido[3',4':4,5]-pyrrolo[3,2-c]quinolin-8-yl)benzoic acid ethyl ester]
- Inhibition of Bone Resorption, IL-1 Induced (activity in words) [1]: Active
- IC50 [1]: 3.39 µg/mL (≈ 8.35 µM)
- inhibition at 10 µM [2]: 38%
- Inhibition of Bone Resorption, PTH-Induced (activity in words) [3]: Active
- IC50 [3]: 0.98 µg/mL (≈ 2.41 µM)

Compound: N#Cc1ccc(N2CCc3[nH]c4c(cnc5cc(Cl)ccc54)c3C2)cc1 [Example 3, 4-(3-Chloro-8,9,10,11-tetrahydro-7H-pyrido[3',4':4,5]-pyrrolo[3,2-c]quinolin-8-yl)benzonitrile]
- inhibition at 10 µM [2]: 22%

Compound: O=C(c1cccs1)N1CCc2[nH]c3c(cnc4cc(Cl)ccc43)c2C1 [Example 4, 3-Chloro-8,9,10,11-tetrahydro-8-(2-thienylcarbonyl)-7H-pyrido[3',4':4,5]pyrrolo[3,2-c]quinoline]
- Inhibition of Bone Resorption, IL-1 Induced (activity in words) [1]: Active at <5 μg/ml
- inhibition at 0.1 µM ([2]; dose 0.1 μM): 14%
- inhibition at 1 µM ([2]; dose 1 μM): 20%
- inhibition at 10 µM [2]: 64%
- IC50 [2]: 7.3 µM

Compound: N#Cc1ccc(C(=O)N2CCc3[nH]c4c(cnc5cc(Cl)ccc54)c3C2)cc1 [Example 5, 3-Chloro-8-(4-cyanobenzoyl)-8,9,10,11-tetrahydro-7H-pyrido[3',4':4,5]pyrrolo[3,2-c]quinoline]
- inhibition at 10 µM [2]: 28%

Compound: O=C(c1ccccc1)N1CCc2[nH]c3c(cnc4cc(Cl)ccc43)c2C1 [Example 6, 8-Benzoyl-3-Chloro-8,9,10,11-tetrahydro-7H-pyrido[3',4':4,5]pyrrolo[3,2-c]quinoline]
- Inhibition of Bone Resorption, IL-1 Induced (activity in words) [1]: Active at 5 μg/ml
- inhibition at 10 µM [2]: 57%
- Inhibition of Bone Resorption, PTH-Induced (activity in words) [3]: Active at 10 μg/ml

Compound: O=C(Nc1ccccc1)N1CCc2[nH]c3c(cnc4cc(Cl)ccc43)c2C1 [Example 7, 3-Chloro-7,9,10,11-tetrahydro-N-phenyl-8H-pyrido-[3',4':4,5]pyrrolo[3,2-c]quinoline-8-carboxamide]
- inhibition at 10 µM [2]: 21%

Compound: O=C(c1cc2ccccc2s1)N1CCc2[nH]c3c(cnc4cc(Cl)ccc43)c2C1 [Example 10, 8-(Benzo[b]thien-2-ylcarbonyl)-3-chloro-8,9,10,11-tetrahydro-7H-pyrido[3',4':4,5]pyrrolo[3,2-c]quinoline]
- Inhibition of Bone Resorption, IL-1 Induced (activity in words) [1]: Active
- IC50 [1]: 0.067 µg/mL (≈ 0.16 µM)
- inhibition at 10 µM [2]: 24%

Compound: O=C(NC(=O)N1CCc2[nH]c3c(cnc4cc(Cl)ccc43)c2C1)c1ccccc1 [Example 13, N-Benzoyl-3-chloro-7,9,10,11-tetrahydro-8H-pyrido-[3',4':4,5]pyrrolo[3,2-c]quinoline-8-carboxamide]
- Inhibition of Bone Resorption, IL-1 Induced (activity in words) [1]: Active
- IC50 [1]: 1.71 µg/mL (≈ 4.22 µM)
- Inhibition of Bone Resorption, PTH-Induced (activity in words) [3]: Active
- IC50 [3]: 0.944 µg/mL (≈ 2.33 µM)

Compound: S=C(Nc1ccccc1)N1CCc2[nH]c3c(cnc4cc(Cl)ccc43)c2C1 [Example 14, 3-Chloro-7,9,10,11-tetrahydro-N-phenyl-8H-pyrido-[3',4':4,5]pyrrolo[3,2-c]quinoline-8-carbothioamide]
- Inhibition of Bone Resorption, IL-1 Induced (activity in words) [1]: Active
- IC50 [1]: 1.21 µg/mL (≈ 3.08 µM)
- Inhibition of Bone Resorption, PTH-Induced (activity in words) [3]: Active
- IC50 [3]: 1.2 µg/mL (≈ 3.05 µM)

Compound: CCOC(=O)c1ccc(NC(=O)N2CCc3[nH]c4c(cnc5cc(Cl)ccc54)c3C2)cc1 [Example 15, 4-[[(3-Chloro-7,9,10,11-tetrahydro-8H-pyrido[3',4':4,5]pyrrolo-[3,2-c]quinoline-8-yl)carbonyl]amino]benzoic acid ethyl ester]
- Inhibition of Bone Resorption, PTH-Induced (activity in words) [3]: Active
- IC50 [3]: 5.5 µg/mL (≈ 12.3 µM)

Compound: O=C(NCc1ccccc1)N1CCc2[nH]c3c(cnc4cc(Cl)ccc43)c2C1 [Example 16, 3-Chloro-7,9,10,11-tetrahydro-N-(phenylmethyl)-8H-pyrido-[3',4':4,5]pyrrolo[3,2-c]quinoline-8-carboxamide]
- Inhibition of Bone Resorption, IL-1 Induced (activity in words) [1]: Active
- IC50 [1]: 6.22 µg/mL (≈ 15.9 µM)
- Inhibition of Bone Resorption, PTH-Induced (activity in words) [3]: Active
- IC50 [3]: 2.52 µg/mL (≈ 6.45 µM)

Compound: O=C(NC(=S)N1CCc2[nH]c3c(cnc4cc(Cl)ccc43)c2C1)c1ccccc1 [Example 17]
- Inhibition of Bone Resorption, IL-1 Induced (activity in words) [1]: Active
- IC50 [1]: 1.65 µg/mL (≈ 3.92 µM)
- Inhibition of Bone Resorption, PTH-Induced (activity in words) [3]: Active
- IC50 [3]: 1.16 µg/mL (≈ 2.76 µM)

Compound: S=C(NCc1ccccc1)N1CCc2[nH]c3c(cnc4cc(Cl)ccc43)c2C1 [Example 18, 3-Chloro-7,9,10,11-tetrahydro-N-(phenylmethyl)-8H-pyrido-[3',4':4,5]pyrrolo[3,2-c]quinoline-8-carbothioamide]
- Inhibition of Bone Resorption, IL-1 Induced (activity in words) [1]: Active
- IC50 [1]: 2.39 µg/mL (≈ 5.87 µM)

Compound: COc1cccc(NC(=O)N2CCc3[nH]c4c(cnc5cc(Cl)ccc54)c3C2)c1 [Example 20, 3-Chloro-7,9,10,11-tetrahydro-N-(3-methoxyphenyl)-8H-pyrido-[3',4':4,5]pyrrolo[3,2-c]quinoline-8-carboxamide]
- Inhibition of Bone Resorption, IL-1 Induced (activity in words) [1]: Active
- IC50 [1]: 0.0088 µg/mL (≈ 0.0216 µM)
- Inhibition of Bone Resorption, PTH-Induced (activity in words) [3]: Active
- IC50 [3]: 0.059 µg/mL (≈ 0.145 µM)

Compound: COc1ccc(S(=O)(=O)N2CCc3[nH]c4c(cnc5cc(Cl)ccc54)c3C2)cc1 [Example 21, 3-Chloro-8,9,10,11-tetrahydro-8-[(4-methoxyphenyl)sulfonyl]-7H-pyrido[3',4':4,5]pyrrolo[3,2-c]quinoline]
- Inhibition of Bone Resorption, IL-1 Induced (activity in words) [1]: Active
- IC50 [1]: 8.48 µg/mL (≈ 19.8 µM)
